In patent publication US10874745B2, “Antimicrobial peptides and methods of treating gram-negative pathogens: polar and non-polar face analogs” (priority 2017, dated 2020):
Where two headings read alike, the source gives them in different places.

How the values were obtained:
MRSA = assay: Resistance profile of MRSA strains; assay type: cell-based, Staphylococcus aureus; parameters: key: R denotes resistant; S denotes sensitive
MSSA = assay: Resistance profile of MSSA strains; assay type: cell-based, Staphylococcus aureus; parameters: key: R denotes resistant; S denotes sensitive
[1] = tested on: A. baumannii strains resistant to Polymyxin B and Colistin; assay type: cell-based; conditions: for MICGM: geometric mean, 7 A. baumannii strains resistant to polymyxin B and colistin
Description: Gram-Negative Bacterial Strains used in this Study: All the A. baumannii strains used in this study were 1) obtained from the collection of Dr. Anthony A. Campagnari at the University of Buffalo and originally isolated from different patients and organs/tissues (strain 649, blood; strain 689, groin; strain 759, gluteus; strain 884, axilla; strain 985, pleural fluid); 2) were purchased from the American Type Culture Collection (ATCC, Manassas, Va., USA) (strain ATCC 17978, fatal meningitis; and strain ATCC 19606, urine); 3) obtained from MERCK (M89941, M89949, M89951, M89952, M89953, M89955 and M89963). These seven A. baumannii strains were resistant to polymyxin B and polymyxin E (Colistin).
Measurement of Antimicrobial Activity (MIC): The minimal inhibitory concentration (MIC) is defined as the lowest peptide concentration that inhibited bacterial growth. MICs were measured by a standard microtiter dilution method in Mueller Hinton (MH) medium. Briefly, cells were grown overnight at 37° C. in MH broth and were diluted in the same medium. […] The plates were incubated at 37° C. for 24 h, and the MICs were determined.

Compound	Antibiotic Susceptibility (MRSA; MRSA strain M21742 (Nose))	Antibiotic Susceptibility (MRSA; MRSA strain M21756 (Nose))	Antibiotic Susceptibility (MRSA; MRSA strain M22111 (Ear))	Antibiotic Susceptibility (MRSA; MRSA strain M22130)	Antibiotic Susceptibility (MRSA; MRSA strain M22224 (Leg))	Antibiotic Susceptibility (MRSA; MRSA strain M22354)	Antibiotic Susceptibility (MRSA; MRSA strain M22360 (Labia))	Antibiotic Susceptibility (MRSA; MRSA strain M22424 (Arm))	Antibiotic Susceptibility (MSSA; MSSA strain BL7429 (Blood))	Antibiotic Susceptibility (MSSA; MSSA strain M21913 (Finger))	Antibiotic Susceptibility (MSSA; MSSA strain M22075 (Axilla))	Antibiotic Susceptibility (MSSA; MSSA strain M22097 (Neck))	Antibiotic Susceptibility (MSSA; MSSA strain M22274 (Spine))	Antibiotic Susceptibility (MSSA; MSSA strain M22287 (Hip))	Antibiotic Susceptibility (MSSA; MSSA strain M22300 (Finger))	Antibiotic Susceptibility (MSSA; MSSA strain M22312 (Finger))	Antibiotic Susceptibility (MSSA; MSSA strain M22315)	MICGM [1]	MIC ([1]; strain M89941)	MIC ([1]; strain M89949)	other results
CCC[C@@H]1C[C@@H](C(=O)N[C@@H]([C@H]2O[C@H](SC)[C@H](O)[C@@H](O)[C@H]2O)[C@H](C)Cl)N(C)C1 [Clindamycin]	S	S	R	S	S	S	S	S^c	S	S	S	S	S	S	S	S	S				
CC[C@H]1OC(=O)[C@H](C)[C@@H](O[C@H]2C[C@@](C)(OC)[C@@H](O)[C@H](C)O2)[C@H](C)[C@@H](O[C@@H]2O[C@H](C)C[C@H](N(C)C)[C@H]2O)[C@](C)(O)C[C@@H](C)C(=O)[C@H](C)[C@@H](O)[C@]1(C)O [Erythromycin]	R	S	R	R	R	R	R	R	S	S	S	S	S		S	S	S				
Cc1onc(-c2ccccc2)c1C(=O)N[C@@H]1C(=O)N2[C@@H]1SC(C)(C)[C@@H]2C(=O)O [Oxacillin]	R	R	R	R	R	R	R	R^c	S	S	S	S	S	S	S	S	S				
Colistin [reference compound]																		>28 µM	>28 µM	>28 µM	MIC ([1]; strain M89951): >28 µM; MIC ([1]; strain M89952): >28 µM; MIC ([1]; strain M89953): >28 µM; MIC ([1]; strain M89955): >28 µM; MIC ([1]; strain M89963): >28 µM
Polymyxin B [reference compound]																		>25 µM	>25 µM	>25 µM	MIC ([1]; strain M89951): >25 µM; MIC ([1]; strain M89952): >25 µM; MIC ([1]; strain M89953): >25 µM; MIC ([1]; strain M89955): >25 µM; MIC ([1]; strain M89963): >25 µM
